Experimental findings from ChEMBL document CHEMBL1201862, “PubChem BioAssay data set” (2004) are described below.

Activity calls are given as the source filed them. Cut-off read from the data, not from the text of the source: actives have a measured EC50 and inactives only a lower limit.

The nature of assay [1]: cytotoxicity in HPDE-C7 cells, cell-based, fluorescence, HTS (AID 430). The assay is classed as functional. The conditions noted are these: Homo sapiens.
The nature of assay [2]: cytotoxicity in KRAS-transformed pancreatic duct cells, primary screen, cell-based, fluorescence, HTS (AID 431).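 Note: cell line used: HPDE-C7K.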 It counts as functional. The conditions noted are these: Homo sapiens.

By EC50 is commonly meant the concentration that produces a half-maximal response. Consider `O=c1c2ccccc2[nH]c(=S)n1CCN1CCC(=C(c2ccc(F)cc2)c2ccc(F)cc2)CC1` [DIACYLGLYCEROL KINASE INHIBITOR II], for which the EC50 in assay [1] was 3.94 µM (active); in assay [2], 4.21 µM (active).
